In patent publication US12397059B2, “Compounds and methods for the treatment and prevention of fibrotic disease states and cancer” (Purdue Research Foundation, priority 2019, dated 2025):

Key:
[1] = tested on: BM-induced experimental pulmonary fibrosis in mice; settings: mouse, in vivo
Procedure: Studies were also performed to determine if macrophages in pulmonary fibrotic lungs might be specifically targeted with folate-linked drugs in vivo. […] (The BM model is widely regarded to be helpful in terms of enabling mechanistic investigations relevant to fibrogenesis in an in vivo context.)
More specifically, eight-week-old C57BL6 male mice from Charles River (average weight 22 g to 25 g) were housed under pathogen-free conditions at room temperature (22° C.) under a 12 hours light-dark cycle. Mice were placed on a folate deficient chow (Envigo Teklad Global Rat Food Pellets) for 1 week prior to the BM or PBS instillation. Fresh water and folate-deficient diet were freely available. All animal procedures were approved by the Purdue Animal Care and Use Committee in accordance with National Institute of Health guidelines.
Thereafter, the mice were anesthetized with ketamine/xylazine and the necks of the mice were shaved using hair remover lotion and then sterilized with 70% alcohol. A small incision was made on the neck to visualize the trachea. Mice were positioned at a 75-degree angle and injected intratracheally with 100 μL sterile PBS or BM (Cayman Chemicals, Ann Arbor, MI; #13877) dissolved in PBS (0.75 mg/kg) using a 1 cc syringe with 26 G needle. Body weights were monitored every other day throughout the experiment.
Lobes of the right lung collected above were weighed, placed in a pressure-tight vial (Supelco Inc., Bellefonte, PA; #27003), and hydrolyzed with 6N HCl (10 ml/g, v/w) in a sand bath at 120° C. for 3.5 hours. The hydrolyzed solution was cooled at 4° C. for 15 min and transferred to a 1.5 ml Eppendorf tube prior to centrifugation at 12,000 rcf for 15 min at 4° C. Supernatant was carefully collected, aliquoted and used for hydroxyproline (HYP) analysis.
For the subsequent HYP analysis, 10 μl of sample was transferred into a 96-well plate and neutralized with 10 μl of 5.3 M sodium hydroxide solution. Isopropanol (40 μl) was then added to each well followed by 20 μl of oxidation buffer and the mixture was incubated on a shaker at room temperature for 5 min. Analytical reagent (260 μl) was added, and the plate was incubated on a shaker at room temperature for 30 seconds and incubated immediately at 60° C. for 25 min. The absorbance was measured at 560 nm (A560) within 15 min. All reagents were prepared according to a previously reported protocol.
For histological analysis of the lung sections, fixed lungs (see above) were embedded in paraffin, sectioned and stained with hematoxylin-eosin (H&E), Masson's trichrome or F3 (anti-mouse FRβ antibody). Tissue sections were examined in a blinded manner by a licensed pathologist. More than 90×10^6 cells were quantified per section using Aperio-Image Scope (Leica Biosystems, Wetzlar, DE).
For this, BM-treated mice were intravenously injected every other day beginning on day 10 with either vehicle (3% DMSO in PBS) or Compound 1B (see FIG. 8A). […] In BM-induced experimental pulmonary fibrosis in mice, inflammation is known to persist for about 9-10 days after BM installation. Because, inflammation to fibrosis switch happens in this model approximately day 9 to day 14, and profibrotic markers start appearing at about day 10, dosing began on day 10 (FIG. 8A).
Two doses were given every other day till day 21. The individual doses on a day are separated by 6 hours to prevent any “tolerance” to TLR agonists. Mice were then sacrificed on day 21 and subjected immediately to bronchoalveolar lavage followed by resection of the lungs for immunohistochemistry and quantitation of collagen and hydroxyproline.

[2] = tested on: M2-induced THP-1 macrophages; assay: Secreted CCL18 and IL-1β in THP-1 supernatants by ELISA; assay type: cell-based, human; settings: THP-1 cells of FIGS. 14A-14C, low concentration range (0.1-10 nM)
[3] = tested on: THP-1 cells polarized to M2-like macrophages; assay: Reprogramming of M2-like THP-1 macrophages, marker gene analysis by qPCR; assay type: cell-based, human; settings: M2-induced THP-1, 2 hours, qPCR
Procedure: THP-1 cells were seeded into 96-well plates at a density of 60,000 cells/well. Cells were differentiated into unpolarized macrophages by 48 hours incubation with 200 nM PMA followed by 24 hours incubation in fresh RPMI medium. […] Cultures were maintained at 37° C. in a humidified 5% CO2 incubator.
Total RNA was isolated from 1×10^5 —2×10^5 macrophages using a Quick-RNA™ MicroPrep kit (Zymo Research, Irvine, CA) according to the manufacturer-recommended protocol. […] IL-6, CXCL10, IFNα, IFN-γ and CD86 were used as markers for an M1 phenotype, while CCL18, CD206, CD163 and Arg1 were employed as markers for the M2 phenotype. IL-1β, PDGFβ, MMP9 and TIMP 3 were measured as indicators of a profibrotic phenotype. IRAK-4 was used as an indicator of TLR7 stimulation. To control for specificity of the amplification products, a melting curve analysis was performed. […] Each sample was analyzed independently in triplicate for each marker.
Primarily, human monocytic (THP-1) cells were induced to the M2-like phenotype using the methods and materials previously described. In particular, THP-1 cells were seeded into 96-well plates at a density of 60,000 cells/well. Cells were differentiated into unpolarized macrophages by 48 h incubation with 200 nM PMA followed by 24 hours incubation in fresh RPMI medium. The resulting macrophages were polarized to an M2-like phenotype by incubation with 20 ng/ml IL-4, 20 ng/ml IL-13, and 5 ng/mL IL-6 for 48 h. Cultures were maintained at 37° C. in a humidified 5% CO2 incubator.
In addition to the nonconjugated TLR7 agonist, conjugated compounds of the present disclosure were likewise evaluated. […] The cells were subsequently harvested for gene analysis by qPCR and the relative expression of CCL18 (FIG. 14A), CD206 (FIG. 14B), and IL-1β (FIG. 14C) analyzed.

FRβ = molecular target: T1, FRβ (Mus musculus, UniProt Q05685); settings: in vivo
T1 construct: from tissue; host or cells: major organs (heart, lung, spleen, liver, small intestine, large intestine, kidney) of bleomycin- or PBS-treated C57BL/6 mice; FRβ-expressing lung macrophages
T1 sequence (Q05685 21-227): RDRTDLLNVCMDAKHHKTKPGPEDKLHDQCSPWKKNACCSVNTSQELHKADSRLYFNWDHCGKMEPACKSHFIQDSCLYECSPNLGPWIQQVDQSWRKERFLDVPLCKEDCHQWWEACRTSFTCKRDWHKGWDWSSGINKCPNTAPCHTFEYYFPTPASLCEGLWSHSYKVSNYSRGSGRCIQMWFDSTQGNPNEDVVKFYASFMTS
Procedure: FIGS. 7C and 7D show FRβ IHC staining of human IPF lung tissue (FIG. 7C) and healthy human lung tissue (FIG. 7D). […] After 2 hours, mice were sacrificed prior to analysis.

FRβ positive macrophages = settings: mouse, in vivo
Procedure: To evaluate if profibrotic lung macrophages in these mice can be specifically targeted with folate-linked drugs, 10 days after the instillation, 10 nmol (for in vivo imaging) or 100 nmol (for in vivo labeling) of a folate-linked, near infrared fluorescent dye (OTL38) with or without 200-fold excess of FA-glucosamine (a competitor of OTL38) was injected into the tail veins of BM-treated mice and the dye uptake in the major organs was evaluated.
Finally, for the in vivo folate imaging studies, major organs (heart, lung, spleen, liver, small intestine, large intestine, and kidney) were resected and imaged using an AMI live imager (Spectral Instruments Imaging, Tucson, AZ). For in vivo folate receptor labeling studies, lungs of the mice were harvested immediately following euthanasia, digested with a lung dissociation kit (Miltenyi Biotec, Bergisch Gladbach, DE; #130-098-427) as described by gentleMACS Octo Dissociator with Heathers (Miltenyi Biotec, Bergisch Gladbach, DE; #130-096-427) as described by manual and filtered through a 70 μm cell strainer (Miltenyi Biotec, Bergisch Gladbach, DE; #130-098-462). […] Labeled macrophages were then washed twice in PBS, stained with 7AAD (viability stain) for 15 min and analyzed by flow cytometry using BD Accuri C6 Software (BD Biosciences, San Jose, CA). […]

Compound	secretion of CCL18 protein [2]	CCL18 relative expression [3]	CD206 relative expression [3]	IL-1β relative expression [3]	effectiveness in reducing profibrotic markers relative to the other compounds [3]	further results
CCCCc1nc2c(N)nc3ccccc3c2n1CC(C)(C)O [Compound 1A, 1-(4-Amino-2-butyl-1H-imidazo[4,5-c]quinolin-1-yl)-2-methylpropan-2-ol]	–	–	–	–	–	body weight change [1]: rapid body weight loss followed by death
Nc1nc(C(F)(F)F)cc2c1[nH]c(=O)n2Cc1ccc(NCCN2CCCC(CO)C2)nc1 (centres unmarked) [Compound 3A]	downregulated	–	–	–	–	–
Nc1nc2ncc(CNc3ccc(C(=O)NC(CCC(=O)N[C@@H](CSSCCOC(=O)OCC4CCCN(CCNc5ccc(Cn6c(=O)[nH]c7c(N)nc(C(F)(F)F)cc76)cn5)C4)C(=O)O)C(=O)O)cc3)nc2c(=O)[nH]1 (some centres unmarked) [Compound 3B]	downregulated	reduced	reduced	reduced	–	–
Nc1nc2ncc(CNc3ccc(C(=O)N[C@@H](CCC(=O)NCCOCCOCCOCCOCCOCCOCCOCCOCCOCCOCCOCCOCCOCC4CCCN(CCNc5ccc(Cn6c(=O)[nH]c7c(N)nc(C(F)(F)F)cc76)cn5)C4)C(=O)O)cc3)nc2c(=O)[nH]1 (some centres unmarked) [Compound 3C]	downregulated	reduced	reduced	reduced	most effective relative to the other compounds	benefit to the subject mice [1]: did not show measurable benefit; hydroxyproline (HP) [1]: decreasing; number of BALF cells [1]: decreasing; survival rates [1]: increased the survival rates
Nc1nc2ncc(CNc3ccc(C(=O)N[C@@H](CCC(=O)NCCOCCOCCOCCOCC4CCCN(CCNc5ccc(Cn6c(=O)[nH]c7c(N)nc(C(F)(F)F)cc76)cn5)C4)C(=O)O)cc3)nc2c(=O)[nH]1 (some centres unmarked) [Compound 3D]	downregulated	reduced	reduced	reduced	most effective relative to the other compounds	–
OTL38	–	–	–	–	–	OTL38 fluorescence in organs of healthy mice (FRβ): only observed in the kidneys; lung accumulation with 200-fold excess folate-glucosamine (FRβ): nearly quantitative blockade of lung accumulation; folate-dye retention with 200-fold excess folate-glucosamine (FRβ positive macrophages): blocked essentially all folate-dye retention
